Source: the supplement of paper PMC10307832

Experiments:
Test in all cases: relative viability (nuclei count vs DMSO), 5 days (fraction); higher = more cells survive
[1] = compound: CN1CCN(CC1)C2=CC(=C(C=C2)NC3=NC=C4C(=N3)N(C5=CC=CC=C5C(=O)N4C)C)OC [XMD8-85] + COc1cc2c(Oc3ccc(NC(=O)C4(C(=O)Nc5ccc(F)cc5)CC4)cc3F)ccnc2cc1OCCCN1CCOCC1 [Foretinib] (partner 0.25 µM)
How it was run: (§1)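 After 5 days of treatment, lung cancer cells in 1536-well plates were fixed and stained in a single step (final 0.05% Triton X-100, 1% formaldehyde, 1 ug/ml Hoechst) and their nuclei counted on 4× images. Treatment had been applied by pin tool the day after seeding as one drug alone or as a fixed anchor-drug dose with five library-drug doses (not always all listed) in √10 steps. Relative viability is the nuclei count of treated wells divided by that of vehicle wells, and values are medians of duplicate plates.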

[2] = compound: CN1CCN(CC1)C2=CC(=C(C=C2)NC3=NC=C4C(=N3)N(C5=CC=CC=C5C(=O)N4C)C)OC [XMD8-85] + CS(=O)(=O)N1CCN(Cc2cc3nc(-c4cccc5[nH]ncc45)nc(N4CCOCC4)c3s2)CC1 [Pictilisib] (partner 1 µM)
How it was run: as §1

[3] = compound: O=C(O)C(Cc1ccccc1[N+](=O)[O-])=NNc1nc(-c2ccc(Cl)c(Cl)c2)cs1 (mixture of isomers) [4EGI-1] + Cc1cc(Nc2cc(N3CCN(C)CC3)nc(Sc3ccc(NC(=O)C4CC4)cc3)n2)n[nH]1 [Tozasertib] (partner 0.1 µM)
How it was run: as §1

[4] = compound: O=C(O)C(Cc1ccccc1[N+](=O)[O-])=NNc1nc(-c2ccc(Cl)c(Cl)c2)cs1 (mixture of isomers) [4EGI-1] + O=C(c1cc(Cc2n[nH]c(=O)c3ccccc23)ccc1F)N1CCN(C(=O)C2CC2)CC1 [Olaparib] (partner 8 µM)
How it was run: as §1

Cell Line	relative viability ([1]; first compound 0.08 µM)	relative viability ([1]; first compound 0.253 µM)	relative viability ([1]; first compound 0.8 µM)	relative viability ([1]; first compound 2.53 µM)	relative viability ([1]; first compound 8 µM)	relative viability ([2]; first compound 0.08 µM)	relative viability ([2]; first compound 0.253 µM)	relative viability ([2]; first compound 2.53 µM)	relative viability ([2]; first compound 8 µM)	relative viability ([3]; first compound 0.5 µM)	relative viability ([3]; first compound 1.581 µM)	relative viability ([3]; first compound 5 µM)	relative viability ([3]; first compound 15.81 µM)	relative viability ([3]; first compound 50 µM)	relative viability ([4]; first compound 0.5 µM)	relative viability ([4]; first compound 1.581 µM)	relative viability ([4]; first compound 5 µM)	relative viability ([4]; first compound 15.81 µM)	relative viability ([4]; first compound 50 µM)	relative viability ([2]; first compound 0.8 µM)
BEN	0.729	0.543	0.509	0.438	0.304	0.535	0.547	0.483	0.38	0.631	0.626	0.53	0.475	0.461	1.15	1.09	1.2	0.891	0.595	
SK-MES-1	0.888	0.712	0.875	1	0.57	0.349	0.371	0.383	0.375	0.894	0.596	0.925	0.699	0.234	0.767	0.508	0.639	0.229	0.148	0.342
NCI-H1623	0.986	0.816	0.789	0.857	0.667					0.481	0.421	0.535	0.36	0.33						
IA-LM	1.07	1.11	1.24	0.964	0.292	0.342	0.187	0.193	0.143						0.767	0.771	0.644	0.154	0.0834	0.334
CAL-12T	1.18	1.17	1.24	1.06	0.346	0.396	0.541	0.395	0.321	0.354	0.264	0.315	0.315	0.21	0.829	0.484	0.754	0.751	0.624	0.393
ABC-1	0.871	0.9	1.41	0.947	0.578	0.628	0.614	0.746		0.201	0.15	0.21	0.206	0.172	0.885		1.19	1.16	0.269	0.942
LCLC-97TM1	0.934	0.95	0.959	1.01	1	0.181	0.22	0.173	0.177	0.231	0.184	0.215	0.219	0.102	0.355		0.278	0.328	0.0574	0.248
PC-14	0.953	0.826	0.881	1.03	0.851	0.618	0.521	0.681	0.462	0.584		0.57		0.28	0.295		0.239	0.1	0.0599	0.661
NCI-H23	1.08	0.778	1.08	0.77	0.866	0.486	0.508	0.523	0.426	0.393		0.471	0.382	0.214	0.335		0.278	0.245	0.161	0.524
NCI-H727	0.895	1.05	0.823	0.553	0.693	0.373	0.387	0.433	0.327	0.595	0.765	0.502	0.499	0.585	0.638	0.679	0.717	0.496	0.592	0.342
A549	1.02	0.869	1.11	1.05	0.913	0.517	0.516		0.483						0.495		0.306	0.355	0.301	0.591
COR-L 105	1.21	1.14	1.08	0.672	0.387	0.429	0.415	0.353	0.303	0.369	0.343	0.343	0.286	0.366	0.64	0.635	0.644	0.559	0.537	0.359
NCI-H650	1.05	0.997	0.947	1.04	0.685		0.892	0.8	0.524	0.858		0.777	0.644	0.626	0.439		0.414	0.404	0.288	0.846
NCI-H1975	1.05	0.925	0.917	0.779	0.561	0.322	0.257	0.29	0.242	0.773	0.653	0.785	0.523	0.179	0.893	0.682	0.805	0.812	0.292	0.267
NCI-H2023	0.865	0.804	0.961	0.699	0.391	0.199	0.274	0.265	0.178	0.377		0.38	0.259	0.142	0.5	0.306	0.432	0.127	0.0742	0.259
EMC-BAC-2	1.1	1.05	0.975	0.965	0.754	0.493	0.569	0.589	0.451	0.324	0.262	0.329	0.312	0.26	0.517		0.5	0.37	0.2	0.527
LK-2		1.05	1.01	0.554	0.389	0.531	0.439	0.361	0.458	0.193		0.199	0.151	0.151	0.86		0.884	0.654	0.404	0.574
EPLC-272H	0.619	0.717	0.751	0.47	0.436		0.324	0.327	0.267	0.288		0.297	0.172	0.193	0.781	0.42	0.952	0.436	0.135	0.318
HCC-366	0.991	1.04	0.988	0.937	0.748	0.137	0.239	0.168	0.304	0.131	0.0938	0.0608	0.0943	0.0321	0.342	0.203	0.395	0.257	0.0601	0.146

Cell Line	relative viability ([1]; first compound 0.08 µM)	relative viability ([1]; first compound 0.253 µM)	relative viability ([1]; first compound 0.8 µM)	relative viability ([1]; first compound 2.53 µM)	relative viability ([1]; first compound 8 µM)	relative viability ([2]; first compound 0.08 µM)	relative viability ([2]; first compound 0.253 µM)	relative viability ([2]; first compound 2.53 µM)	relative viability ([2]; first compound 8 µM)	relative viability ([3]; first compound 0.5 µM)	relative viability ([3]; first compound 1.581 µM)	relative viability ([3]; first compound 5 µM)	relative viability ([3]; first compound 15.81 µM)	relative viability ([3]; first compound 50 µM)	relative viability ([4]; first compound 0.5 µM)	relative viability ([4]; first compound 1.581 µM)	relative viability ([4]; first compound 5 µM)	relative viability ([4]; first compound 15.81 µM)	relative viability ([4]; first compound 50 µM)	relative viability ([2]; first compound 0.8 µM)
NCI-H1793		0.668	0.681	0.783	0.594	0.389	0.248	0.405	0.38	0.318	0.364	0.391	0.247	0.2	1.02	1.16	1.13	0.504	0.234	0.44
NCI-H3122	1.04		1.07	1.04	0.947	0.687	0.573	0.646	0.611	0.418		0.387	0.334	0.116	0.578	0.554	0.667	0.448	0.301	0.649
NCI-H596	0.844	0.85	0.983	0.642	0.502	0.392	0.396	0.397	0.354	1.01	0.769	0.987	0.949	0.783	0.726	0.664	0.786	0.568	0.464	0.359
NCI-H2087	1.34	1.11	1.32	1.15	0.682	0.924	0.723	0.83	0.542	0.272	0.261	0.227	0.164	0.167	0.633	0.562	0.542	0.278	0.162	0.961
NCI-H2342	0.993	0.938	1.15	0.971	0.946					0.549	0.598	0.655	0.544	0.511	0.472	0.429	0.43	0.569	0.51	
NCI-H1563	1.05	0.935	0.836	0.892	0.767	0.703	0.652	0.663	0.62											0.646
NCI-H1395	1.03	0.974	1.05	0.925	0.8	0.699	0.649	0.613	0.484	0.868	0.637	0.764	0.711	0.477	0.492		0.47	0.457	0.394	0.634
NCI-H460	1.07	1.09	1.05	0.948	0.78	0.341	0.356	0.333	0.156	0.538		0.45	0.144	0.314	0.425		0.436	0.244	0.134	0.405
NCI-H2228	0.88	0.758	0.789	0.816	0.423	0.469	0.353	0.363	0.247	0.276	0.273	0.248	0.285	0.134	0.947	0.702	0.693	0.536	0.128	0.202
HOP-62	1.14	1.13	0.971	0.946	0.466	0.734	0.723	0.559	0.232	0.385	0.257	0.403	0.34	0.211	0.493		0.445	0.208	0.267	0.858
Calu-6	0.858	0.948	0.879	0.804	0.674	1.02	0.97	0.979	0.572						0.559	0.5	0.627	0.464	0.332	1.05
NCI-H1299	1.13	1.1	1.1	1.11	0.86	0.651	0.908	0.643	0.367						1.01	0.95	0.942	0.863	0.317	0.874
EBC-1	0.104	0.0951	0.112	0.0978	0.0972	0.383	0.364	0.339	0.18						0.808	0.755	0.765	0.506	0.237	0.502
NCI-H1703	0.353	0.363	0.33	0.374	0.35	0.236	0.234	0.229	0.196						0.601	0.46	0.409	0.52	0.331	0.269
NCI-H1648										0.604	0.623	0.532	0.466	0.314	0.742	0.79	0.965	0.566	0.48	
HCC-44						0.616	0.548	0.783	0.452	0.971		0.946	0.384	0.282	0.959	0.829	0.953	0.934	0.752	0.767
SW 900	0.942	0.922	1.58	0.466	0.403					0.688		0.551	0.459	0.291	0.923	0.812	0.936	0.552	0.23	
NCI-H522										0.558	0.491	0.595	0.558	0.457	0.694	0.776	0.617	0.574	0.471	
